Data reported in patent US20190247361A1, “OXYTOCIN ANTAGONIST DOSING REGIMENS FOR PROMOTING EMBRYO IMPLANTATION AND PREVENTING MISCARRIAGE” (ObsEva S.A., priority 2016, published 2019).

Legend:
[1] = test system: subjects undergoing embryo transfer therapy; test: Phase 2 clinical study: pregnancy and live birth after embryo transfer; assay type: in vivo, human
Excerpt: A total of 247 female subjects were selected for treatment based on a variety of inclusion criteria. Of these, 244 subjects completed the study. The study was open to healthy female volunteers from 18 to 36 years of age that had previously undergone up to one IVF or ICSI cycle that resulting in a negative pregnancy test as assessed by hCG detection, despite the transfer of at least one embryo of good quality, which was defined as an embryo having from six to eight blastomeres of uniform size and shape on the day of embryo transfer, ooplasm having no granularity, absence of multinucleation, and a maximum fragmentation of 10%. Subjects included in the study had at least one functional ovary and were capable of communicating with the investigator and research staff and complying with the requirements of the study protocol. Data are presented in the form of mean (standard deviation).
Subjects included in the study underwent an initial screening period beginning up to 12 weeks prior to the day of oocyte retrieval from the subject. During this 12-week period, subjects underwent physical and gynecological examination in preparation for oocyte retrieval. This analysis included a recordation of the subjects' vital signs, hematology and biochemistry analysis of blood samples withdrawn from the subjects, urinary analysis, and a comprehensive review of the subjects' medical histories.
At the conclusion of the screening period, subjects underwent controlled ovarian hyperstimulation by administration of a GnRH antagonist so as to prevent a premature rise in serum LH concentration. Concurrent pre-treatment with an oral contraceptive prior to controlled ovarian hyperstimulation was allowed, but not required. Final follicular maturation was performed with a single administration of hCG to the subject. Luteal support was performed by intravaginal administration of micronized natural progesterone at a dose of 600 mg (3×200 mg dosage forms) daily, commencing within 6-24 hours of oocyte retrieval. Progesterone administration continued for at least 6 weeks following embryo transfer for subjects testing positive for pregnancy at 14 days following embryo transfer. Retrieved oocytes contained at least 1-4 mature oocytes (i.e., ova), which were subsequently used for IVF or ICSI for embryo generation.
The embryo transfer procedure was conducted three days after the oocyte retrieval day (OPU+3 days). Subjects undergoing embryo transfer were monitored prior to initiating the procedure. This analysis included a recordation of vital signs, as well as a transvaginal ultrasound to assess uterine contraction rate and endometrial thickness. […] Eligible subjects subsequently underwent blood sample analysis to determine pre-treatment levels of serum E2 and P4.
(§1) From one to two embryos of good quality were transferred to each subject. To reduce uterine contractions at the time of embryo transfer, soft or ultra-soft catheters were used and contact with the uterine fundus was avoided. Any difficulties that occurred during the embryo transfer procedure were recorded, including instances in which uterine sounding or cervical dilation were required, instances in which a harder catheter was required, or instances in which blood was found in any part of the catheter.
Approximately 1 hour following embryo transfer, subjects underwent a final physical examination and were subsequently discharged from the clinical unit until the first follow-up visit, which occurred at about 14 days following oocyte retrieval (OPU+14 days). At this time, subjects underwent a physical examination as well as a blood sample analysis to assess pregnancy by detection of hCG. Subjects testing positive for pregnancy continued the study and were scheduled for follow-up examinations at about 6 weeks following embryo transfer and at about 10 weeks following oocyte retrieval (OPU+10 weeks). Subjects that returned for examination at about 6 weeks following embryo transfer underwent ultrasound analysis. […]

[2] = serum compound (II) level at time of embryo transfer (Phase 2 study); assay type: in vivo; conditions: female, human, oral, about 3.5 hours after administration, mean (standard deviation)
Procedure: as §1

HEK293EBNA cells = conditions: suppressing Ca^2+ mobilization in cultured HEK293EBNA cells; cited from earlier work
[3] = test system: cytochrome P450 in combination with UGT; test: microsomal stability, pooled liver microsomes, cytochrome P450 in combination with UGT; assay type: in vitro ADME; conditions: 45 minute experiment
Procedure: At five time points over the course of a 45 minute experiment, the compounds were analyzed by liquid chromatography and tandem mass spectrometry (LC-MS/MS). Intrinsic clearance values (CLint) with standard error (SE CLint) and metabolic half-life (t1/2) were calculated and are indicated in Table 9, below.

[4] = test system: spontaneous uterine contractions; conditions: anesthetized late-term pregnant rats, cited from earlier work
human subjects = conditions: cited from earlier work
[5] = All P4 quartiles, 1 embryo transferred, 100 mg dose
[6] = All P4 quartiles, 1 embryo transferred, 300 mg dose
[7] = All P4 quartiles, 1 embryo transferred, 900 mg dose
[8] = All P4 quartiles, 1 embryo transferred, All doses
[9] = All P4 quartiles, 2 embryos transferred, 100 mg dose
[10] = All P4 quartiles, 2 embryos transferred, 300 mg dose
[11] = All P4 quartiles, 2 embryos transferred, 900 mg dose
[12] = All P4 quartiles, 2 embryos transferred, All doses
[13] = Excluding upper P4 quartile, 1 embryo transferred, 100 mg dose
[14] = Excluding upper P4 quartile, 1 embryo transferred, 300 mg dose
[15] = Excluding upper P4 quartile, 1 embryo transferred, 900 mg dose
[16] = Excluding upper P4 quartile, 1 embryo transferred, All doses
[17] = Excluding upper P4 quartile, 2 embryos transferred, 100 mg dose
[18] = Excluding upper P4 quartile, 2 embryos transferred, 300 mg dose
[19] = Excluding upper P4 quartile, 2 embryos transferred, 900 mg dose
[20] = Excluding upper P4 quartile, 2 embryos transferred, All doses
[21] = excluding subjects from pre-treatment serum P4 concentration Q4, 100 mg dose
[22] = excluding subjects from pre-treatment serum P4 concentration Q4, 300 mg dose
[23] = excluding subjects from pre-treatment serum P4 concentration Q4, 900 mg dose
[24] = excluding subjects from pre-treatment serum P4 concentration Q4, All doses

Structure (SMILES): CO/N=C1/C[C@@H](CO)N(C(=O)c2ccc(-c3ccccc3C)cc2)C1 [Compound (II), (3Z,5S)-5-(hydroxymethyl)-1-[(2′-methyl-1,1′-biphenyl-4-yl)carbonyl]pyrrolidin-3-one O-methyloxime]
- Live birth rate at a gestational age of at least 24 weeks [1, 5]: (33.33%)
- Live birth rate at a gestational age of at least 24 weeks, Frequency [1, 5]: 13/39
- Live birth rate at a gestational age of at least 24 weeks [1, 6]: (33.33%)
- Live birth rate at a gestational age of at least 24 weeks, Frequency [1, 6]: 12/36
- Live birth rate at a gestational age of at least 24 weeks [1, 7]: (40.00%)
- Live birth rate at a gestational age of at least 24 weeks, Frequency [1, 7]: 14/35
- Live birth rate at a gestational age of at least 24 weeks [1, 8]: (35.45%)
- Live birth rate at a gestational age of at least 24 weeks, Frequency [1, 8]: 39/110
- Live birth rate at a gestational age of at least 24 weeks [1, 9]: (52.17%)
- Live birth rate at a gestational age of at least 24 weeks, Frequency [1, 9]: 12/23
- Live birth rate at a gestational age of at least 24 weeks [1, 10]: (37.50%)
- Live birth rate at a gestational age of at least 24 weeks, Frequency [1, 10]: 9/24
- Live birth rate at a gestational age of at least 24 weeks [1, 11]: (50.00%)
- Live birth rate at a gestational age of at least 24 weeks, Frequency [1, 11]: 12/24
- Live birth rate at a gestational age of at least 24 weeks [1, 12]: (46.48%)
- Live birth rate at a gestational age of at least 24 weeks, Frequency [1, 12]: 33/71
- Live birth rate at a gestational age of at least 24 weeks [1, 13]: (32.35%)
- Live birth rate at a gestational age of at least 24 weeks, Frequency [1, 13]: 11/34
- Live birth rate at a gestational age of at least 24 weeks [1, 14]: (45.45%)
- Live birth rate at a gestational age of at least 24 weeks, Frequency [1, 14]: 10/22
- Live birth rate at a gestational age of at least 24 weeks [1, 15]: (44.83%)
- Live birth rate at a gestational age of at least 24 weeks, Frequency [1, 15]: 13/29
- Live birth rate at a gestational age of at least 24 weeks [1, 16]: (40.00%)
- Live birth rate at a gestational age of at least 24 weeks, Frequency [1, 16]: 34/85
- Live birth rate at a gestational age of at least 24 weeks [1, 17]: (50.00%)
- Live birth rate at a gestational age of at least 24 weeks, Frequency [1, 17]: 8/16
- Live birth rate at a gestational age of at least 24 weeks [1, 18]: (53.85%)
- Live birth rate at a gestational age of at least 24 weeks, Frequency [1, 18]: 7/13
- Live birth rate at a gestational age of at least 24 weeks [1, 19]: (60.00%)
- Live birth rate at a gestational age of at least 24 weeks, Frequency [1, 19]: 12/20
- Live birth rate at a gestational age of at least 24 weeks [1, 20]: (55.10%)
- Live birth rate at a gestational age of at least 24 weeks, Frequency [1, 20]: 27/49
- Live birth rate at gestational age of at least 24 weeks ([1]; all subjects, 100 mg dose): 40.3%
- Ongoing pregnancy rate at 6 weeks post embryo transfer ([1]; all subjects, 100 mg dose): 46.8%
- Ongoing pregnancy rate at 10 weeks post oocyte retrieval ([1]; all subjects, 100 mg dose): 43.5%
- Positive pregnancy test at 14 days post embryo transfer ([1]; all subjects, 100 mg dose): 56.5%
- Live birth rate at gestational age of at least 24 weeks ([1]; all subjects, 300 mg dose): 35.0%
- Ongoing pregnancy rate at 6 weeks post embryo transfer ([1]; all subjects, 300 mg dose): 35.0%
- Ongoing pregnancy rate at 10 weeks post oocyte retrieval ([1]; all subjects, 300 mg dose): 35.0%
- Positive pregnancy test at 14 days post embryo transfer ([1]; all subjects, 300 mg dose): 50.0%
- Live birth rate at gestational age of at least 24 weeks ([1]; all subjects, 900 mg dose): 43.3%
- Ongoing pregnancy rate at 6 weeks post embryo transfer ([1]; all subjects, 900 mg dose): 46.7%
- Ongoing pregnancy rate at 10 weeks post oocyte retrieval ([1]; all subjects, 900 mg dose): 45.0%
- Positive pregnancy test at 14 days post embryo transfer ([1]; all subjects, 900 mg dose): 53.3%
- Live birth rate at gestational age of at least 24 weeks ([1]; all subjects, All doses): 39.6%
- Ongoing pregnancy rate at 6 weeks post embryo transfer ([1]; all subjects, All doses): 42.9%
- Ongoing pregnancy rate at 10 weeks post oocyte retrieval ([1]; all subjects, All doses): 41.2%
- Absolute increase in live birth rate vs placebo [1, 21]: 7.4%
- Live birth rate at gestational age of at least 24 weeks [1, 21]: 38.0%
- Live birth rate at gestational age of at least 24 weeks, frequency [1, 21]: 19/50;
- Ongoing pregnancy rate at 6 weeks post embryo transfer [1, 21]: 44.0%
- Ongoing pregnancy rate at 10 weeks post oocyte retrieval [1, 21]: 42.0%
- Positive pregnancy test at 14 days post embryo transfer [1, 21]: 54.0%
- Absolute increase in live birth rate vs placebo [1, 22]: 18.0%
- Live birth rate at gestational age of at least 24 weeks [1, 22]: 48.6%
- Live birth rate at gestational age of at least 24 weeks, frequency [1, 22]: 17/35;
- Ongoing pregnancy rate at 6 weeks post embryo transfer [1, 22]: 48.6%
- Ongoing pregnancy rate at 10 weeks post oocyte retrieval [1, 22]: 48.6%
- Positive pregnancy test at 14 days post embryo transfer [1, 22]: 62.9%
- Absolute increase in live birth rate vs placebo [1, 23]: 20.4%
- Live birth rate at gestational age of at least 24 weeks [1, 23]: 51.0%
- Live birth rate at gestational age of at least 24 weeks, frequency [1, 23]: 25/49;
- Ongoing pregnancy rate at 6 weeks post embryo transfer [1, 23]: 53.1%
- Ongoing pregnancy rate at 10 weeks post oocyte retrieval [1, 23]: 51.0%
- Positive pregnancy test at 14 days post embryo transfer [1, 23]: 59.2%
- Absolute increase in live birth rate vs placebo [1, 24]: 14.9%
- Live birth rate at gestational age of at least 24 weeks [1, 24]: 45.5%
- Live birth rate at gestational age of at least 24 weeks, frequency [1, 24]: 61/134;
- Ongoing pregnancy rate at 6 weeks post embryo transfer [1, 24]: 48.5%
- Ongoing pregnancy rate at 10 weeks post oocyte retrieval [1, 24]: 47.0%
- concentration at 3.5 h ([2]; 100 mg dose): 484 ng/mL
- concentration at 3.5 h ([2]; 300 mg dose): 1450 ng/mL
- concentration at 3.5 h ([2]; 900 mg dose): 4160 ng/mL
- IC50 (HEK293EBNA cells): 81 nM
- microsomal CLint at 3 μM ([3]; read-out: CLint, Metabolic Stability - CYP/UGT): 9.33 µL/min/mg
- half-life at 3 μM ([3]; read-out: t1/2, Metabolic Stability - CYP/UGT): 2.48 h
- effect on spontaneous uterine contractions ([4]; 10, 30, and 60 mg/kg): dose-dependent reduction in spontaneous uterine contractions
- Inhibition of spontaneous uterine contractions ([4]; from 170 to 180 minutes after oral administration at a dose of 60 mg/kg): about 42%
- safely tolerated dose (human subjects): up to 1500 mg
